Reference: US7838463B2, “Safeners based on acrylic-aliphatic carboxylic acid derivatives” (Bayer CropScience AG, priority 2003, dated 2010)

Experiments:
Assay type in all cases: in vivo
[1] = tested on: Zea mays (corn), cv. 'Lorenzo'; assay: Post-emergence application of herbicide H2 (foramsulfuron) and safener by the tank mix method: crop damage; details: for Safener action as % damage reduction in crop plants: ZEAMA, versus herbicide alone
From the text: (§1) Seeds of various crop plants and weed species were sown in sandy loam soil in round plastic pots of a diameter of 13 cm and covered with a layer of sandy loam of a thickness of about 1 cm. The pots were placed in a greenhouse under favorable growth conditions for a period of about two to three weeks, allowing the plants to reach a growth stage of 2 to 4 leaves. The herbicides in the form of liquid (for example emulsion concentrates) or dry (for example water-dispersible powders) formulations were mixed with a standard additive (based on rapeseed oil methyl ester), diluted with deionized water to the required concentrations and applied to the green parts of the plants and the uncovered part of the soil surface with a spray bar using a water application rate of 300 liters per hectare. In the experiment shown below, safener and the herbicide foramsulfuron were in each case used as 20 percent strength water-dispersible powder (results see table 1.2.1). The pots were placed in a greenhouse under favorable growth conditions. Visual scoring of the herbicidal action was carried out four weeks after the herbicide application. Evaluation was carried out on a percentage basis by comparison with untreated control plants (0%=no noticeable effect compared with the untreated plant, 100%=treated plant dies).

[2] = tested on: Amaranthus retroflexus; assay: Post-emergence application of herbicide H2 (foramsulfuron) and safener by the tank mix method: herbicidal action; details: four weeks
From the text: as §1

[3] = tested on: Setaria viridis; assay: as above; details: four weeks
From the text: as §1

[4] = tested on: Zea mays (corn), cv. 'Lorenzo'; assay: Post-emergence application of herbicide H2 (foramsulfuron) after seed dressing with safener; details: for % damage in ZEAMA: four weeks; for Safener action as % damage reduction in crop plants: ZEAMA, versus untreated seed
Description: The number of crop plant seeds required for each application rate of safener was calculated. Sufficient seeds were weighed-out into glass bottles having a screw-on lid. The volume of the glass bottles was approximately twice that of the seeds weighed out. The safeners were formulated as 20 percent strength water-dispersible powders. These formulations were weighed out to give the required application rates (g of a.i./kg of seed). The samples were added to the seed in the glass containers, and sufficient water to form a suitable seed dressing was then added. The glass bottles were closed and then mounted in an overhead shaker (which turns the bottles at moderate speed for a period of up to one hour) so that the seeds were uniformly covered with the seed dressing. The bottles were opened and the seed was ready for use in pre-emergence or post-emergence experiments, as described below. The seeds treated with safener and untreated seeds were sown in sandy loam soil in round plastic pots of a diameter of 13 cm and covered with a layer of sandy loam of a thickness of about 1 cm. The pots were placed in a greenhouse under favorable growth conditions for a period of about two to three weeks, allowing the plants to reach a growth stage of 2 to 4 leaves. The herbicides in the form of liquid (for example emulsion concentrates) or dry (for example water-dispersible powders) formulations were mixed with a standard additive (based on rapeseed oil methyl ester), diluted with deionized water to the required concentrations and applied to the green parts of the plants and the uncovered part of the soil surface with a spray bar using a water application rate of 300 liters per hectare. In the experiment shown below, the herbicide foramsulfuron was used as 20 percent strength water-dispersible powder (results see table 2.3.1). The pots were placed in a greenhouse under favorable growth conditions. Visual scoring of the herbicidal action was carried out four weeks after the herbicide application. Evaluation was carried out on a percentage basis by comparison with untreated control plants (0%=no noticeable effect compared with the untreated plant, 100%=treated plant dies).

[5] = tested on: Zea mays (corn), cv. 'Lorenzo'; assay: Pre-emergence application of herbicide H1 (isoxaflutole) and safener by the tank mix method: crop damage; details: for Safener action as % damage reduction in crop plants: ZEAMA, versus herbicide alone
Description: (§2) Seeds of various crop plants and weed species were sown in sandy loam soil in round plastic pots of a diameter of 13 cm and covered with a layer of sandy loam of a thickness of about 1 cm. Herbicides and safeners in the form of liquid (for example emulsion concentrates) or dry (for example water-dispersible powders) formulations were diluted with deionized water to the required concentrations and applied to the surface of the soil with a spray bar using a water application rate of 300 liters per hectare. In the experiment shown below, the safeners were used as 20 percent strength water-dispersible powders and the herbicide isoxaflutole was used as an aqueous suspension concentrate (see table 1.1.1). The pots were placed in a greenhouse under favorable growth conditions. Visual scoring of the herbicidal action was carried out four weeks after the herbicide application. Evaluation was carried out on a percentage basis by comparison with untreated control plants (0%=no noticeable effect compared with the untreated plant, 100%=treated plant dies).

[6] = tested on: Chenopodium album; assay: Pre-emergence application of herbicide H1 (isoxaflutole) and safener by the tank mix method: herbicidal action; details: four weeks
Description: as §2

[7] = tested on: Setaria viridis; assay: as above; details: four weeks
Description: as §2

[8] = tested on: Zea mays (corn), cv. 'Lorenzo'; assay: Post-emergence application of herbicide H3 (glufosinate-ammonium) and safener by the tank mix method: crop damage; details: for Safener action as % damage reduction in crop plants: ZEAMA, versus herbicide alone
From the text: (§3) Seeds of various crop plants and weed species were sown in sandy loam soil in round plastic pots of a diameter of 13 cm and covered with a layer of sandy loam of a thickness of about 1 cm. The pots were placed in a greenhouse under favorable growth conditions for a duration of about two to three weeks, allowing the plants to reach a growth stage of 2 to 4 leaves. The herbicides, in the form of liquid (for example emulsion concentrates, aqueous solutions) or dry (for example water-dispersible powders) formulations, were diluted with deionized water to the required concentrations and applied to the green parts of the plants and the uncovered part of the surface of the soil with a spray bar using a water application rate of 300 liters per hectare. In the experiment shown below, the safeners were used as 20 percent strength water-dispersible powders and the herbicide glufosinate-ammonium as a commercial 20 percent strength aqueous surfactant-containing solution (results see table 1.2.2).
(§4) The pots were placed in a greenhouse under favorable growth conditions. Visual scoring of the herbicidal action was carried out four weeks after the herbicidal application. Evaluation was carried out on a percentage basis by comparison with untreated control plants (0%=no noticeable effect compared with the untreated plant, 100%=treated plant dies).

[9] = tested on: Amaranthus retroflexus; assay: Post-emergence application of herbicide H3 (glufosinate-ammonium) and safener by the tank mix method: herbicidal action; details: four weeks
From the text: as §3, §4

[10] = tested on: Chenopodium album; assay: as above; details: four weeks
From the text: as §3, §4

[11] = tested on: Glycine max (soybean), cv. 'Lambert'; assay: Pre-emergence application of herbicide H1 (isoxaflutole) after seed dressing with safener; details: for Safener action as % damage reduction in crop plants: GLXMA, versus untreated seed; for % damage in GLXMA: four weeks
Description: (§5) The number of crop plant seeds required for each application rate of safener was calculated. Sufficient seeds were weighed-out into glass bottles having a screw-on lid. The volume of the glass bottles was approximately twice that of the seeds weighed out.
(§6) The safeners were formulated as 20 percent strength water-dispersible powders. These formulations were weighed out to give the required application rates (g of a.i./kg of seed). The samples were added to the seed in the glass containers, and sufficient water to form a suitable seed dressing was then added. The glass bottles were closed and then mounted in an overhead shaker (which turns the bottles at moderate speed for a period of up to one hour) so that the seeds were uniformly covered with the seed dressing. The bottles were opened and the seed was ready for use in pre-emergence or post-emergence experiments, as described below.
(§7) The seeds which had been treated with safeners and untreated seeds as controls were sown in sandy loam soil in round plastic pots of a diameter of 13 cm and covered with a layer of sandy loam of a thickness of about 1 cm. The herbicides in the form of liquid (for example emulsion concentrates) or dry (for example water-dispersible powders) formulations were diluted with deionized water to the required concentrations and applied to the surface of the soil with a spray bar using a water application rate of 300 liters per hectare. In the two experiments shown below (results see tables 2.2.1 and 2.2.2), the herbicide isoxaflutole was used as an aqueous suspension concentrate.
as §4, with “after the herbicide application. Evaluation” for “after the herbicidal application. Evaluation”

[12] = tested on: Zea mays (corn), cv. 'Lorenzo'; assay: as above; details: for Safener action as % damage reduction in crop plants: ZEAMA, versus untreated seed; for % damage in ZEAMA: four weeks
Description: as §5, §6, §7
as §4, with “after the herbicide application. Evaluation” for “after the herbicidal application. Evaluation”

[13] = safener 250 g a.i./ha + herbicide H2 (foramsulfuron) 40 g a.i./ha, post-emergence tank mix
[14] = safener 250 g a.i./ha + herbicide H2 (foramsulfuron) 40 g a.i./ha, post-emergence tank mix, visual scoring four weeks after application
[15] = herbicide H2 (foramsulfuron) 40 g a.i./ha alone, no safener, post-emergence
[16] = safener 250 g a.i./ha + herbicide H1 (isoxaflutole) 100 g a.i./ha, pre-emergence tank mix
[17] = safener 250 g a.i./ha + herbicide H1 (isoxaflutole) 100 g a.i./ha, pre-emergence tank mix, visual scoring four weeks after application, 0%=no effect, 100%=plant dies
[18] = safener 250 g a.i./ha + herbicide H3 (glufosinate-ammonium) 250 g a.i./ha, post-emergence tank mix
[19] = safener 250 g a.i./ha + herbicide H3 (glufosinate-ammonium) 250 g a.i./ha, post-emergence tank mix, visual scoring four weeks after application
[20] = seed dressing with safener 1 g a.i./kg of seed, herbicide H1 (isoxaflutole) 100 g a.i./ha pre-emergence
[21] = seed dressing with safener 1 g a.i./kg of seed, then herbicide H1 (isoxaflutole) 100 g a.i./ha pre-emergence
[22] = seed dressing with safener 1 g a.i./kg of seed, herbicide H2 (foramsulfuron) 40 g a.i./ha post-emergence
[23] = seed dressing with safener 1 g a.i./kg of seed, then herbicide H2 (foramsulfuron) 40 g a.i./ha post-emergence
[24] = herbicide H3 (glufosinate-ammonium) 250 g a.i./ha alone, no safener, post-emergence
[25] = herbicide H1 (isoxaflutole) 100 g a.i./ha alone, no safener, pre-emergence
[26] = untreated seed (no safener), herbicide H1 (isoxaflutole) 100 g a.i./ha pre-emergence

O=C(O)C=Cc1ccccc1F [Comp. 146, 2-fluorocinnamic acid]
Safener action as % damage reduction in crop plants [1, 13]: 72%
% damage in ZEAMA [1, 14]: 10%
Herbicidal action as % damage in AMARE [2, 13]: 98%
Herbicidal action as % damage in SETVI [3, 13]: 92%

COc1cc(OC)nc(NC(=O)NS(=O)(=O)c2cc(NC=O)ccc2C(=O)N(C)C)n1 [Herbicide H2, foramsulfuron, reference compound]
% damage in ZEAMA ([1]; herbicide H2 (foramsulfuron) 40 g a.i./ha alone, no safener, post-emergence, four weeks): 36%
Herbicidal action as % damage in AMARE [2, 15]: 94%
Herbicidal action as % damage in SETVI [3, 15]: 95%
% damage in ZEAMA ([4]; untreated seed (no safener), herbicide H2 (foramsulfuron) 40 g a.i./ha post-emergence): 32%

O=C(O)C=Cc1ccccc1O [Comp. 17, 2-hydroxycinnamic acid]
Safener action as % damage reduction in crop plants [5, 16]: 82%
% damage in ZEAMA [5, 17]: 5%
Herbicidal action as % damage in CHEAL [6, 16]: 94%
Herbicidal action as % damage in SETVI [7, 16]: 96%
Safener action as % damage reduction in crop plants [1, 13]: 78%
% damage in ZEAMA [1, 14]: 8%
Herbicidal action as % damage in AMARE [2, 13]: 94%
Herbicidal action as % damage in SETVI [3, 13]: 98%
Safener action as % damage reduction in crop plants [8, 18]: 61%
% damage in ZEAMA [8, 19]: 24%
Herbicidal action as % damage in AMARE [9, 18]: 95%
Herbicidal action as % damage in CHEAL [10, 18]: 97%
Safener action as % damage reduction in crop plants [11, 20]: 60%
% damage in GLXMA [11, 21]: 33%
Safener action as % damage reduction in crop plants [12, 20]: 68%
% damage in ZEAMA [12, 21]: 8%
Safener action as % damage reduction in crop plants [4, 22]: 81%
% damage in ZEAMA [4, 23]: 6%

CP(=O)(O)CCC(N)C(=O)O (stereo not drawn) [Herbicide H3, glufosinate-ammonium, reference compound]
% damage in ZEAMA ([8]; herbicide H3 (glufosinate-ammonium) 250 g a.i./ha alone, no safener, post-emergence, four weeks): 62%
Herbicidal action as % damage in AMARE [9, 24]: 90%
Herbicidal action as % damage in CHEAL [10, 24]: 92%

O=C(O)C=Cc1ccc(Cl)cc1Cl [Comp. 155, 2,4-dichlorocinnamic acid]
Safener action as % damage reduction in crop plants [5, 16]: 74%
% damage in ZEAMA [5, 17]: 7%
Herbicidal action as % damage in CHEAL [6, 16]: 95%
Herbicidal action as % damage in SETVI [7, 16]: 95%
Safener action as % damage reduction in crop plants [1, 13]: 83%
% damage in ZEAMA [1, 14]: 6%
Herbicidal action as % damage in AMARE [2, 13]: 98%
Herbicidal action as % damage in SETVI [3, 13]: 95%
Safener action as % damage reduction in crop plants [8, 18]: 66%
% damage in ZEAMA [8, 19]: 21%
Herbicidal action as % damage in AMARE [9, 18]: 94%
Herbicidal action as % damage in CHEAL [10, 18]: 92%
Safener action as % damage reduction in crop plants [11, 20]: 64%
% damage in GLXMA [11, 21]: 30%
Safener action as % damage reduction in crop plants [12, 20]: 72%
% damage in ZEAMA [12, 21]: 7%
Safener action as % damage reduction in crop plants [4, 22]: 88%
% damage in ZEAMA [4, 23]: 4%

COc1ccc(C=CC(=O)O)cc1 [Comp. 154, 4-methoxycinnamic acid]
Safener action as % damage reduction in crop plants [1, 13]: 67%
% damage in ZEAMA [1, 14]: 12%
Herbicidal action as % damage in AMARE [2, 13]: 96%
Herbicidal action as % damage in SETVI [3, 13]: 95%

CCOC(=O)C=Cc1cccc(O)c1 [Comp. 191, ethyl 3-hydroxycinnamate]
Safener action as % damage reduction in crop plants [1, 13]: 56%
% damage in ZEAMA [1, 14]: 16%
Herbicidal action as % damage in AMARE [2, 13]: 99%
Herbicidal action as % damage in SETVI [3, 13]: 96%

CS(=O)(=O)c1cc(C(F)(F)F)ccc1C(=O)c1cnoc1C1CC1 [Herbicide H1, isoxaflutole, reference compound]
% damage in ZEAMA ([5]; herbicide H1 (isoxaflutole) 100 g a.i./ha alone, no safener, pre-emergence, four weeks): 27%
Herbicidal action as % damage in CHEAL [6, 25]: 92%
Herbicidal action as % damage in SETVI [7, 25]: 95%
% damage in GLXMA [11, 26]: 83%
% damage in ZEAMA [12, 26]: 25%
